The test system of test [1] is rat primary cortical neurons. In words: LC3 immunoblot in primary cultured rat cortical neurons. The class given is cell-based. Particulars: different concentrations, 24 hours. The procedure: To further confirm the pro-autophagic effect of CB6 and CB8 on primary neurons, rat primary cortical neurons isolated from E17 rats are used in the study. The primary neurons are treated with different concentrations of CB6 and CB8 respectively for 24 hours, and autophagic markers LC3 is detected by immunoblot analysis.
The E16 pregnant rat was anesthetized by intraperitoneal injection with 3% chloral hydrate in normal saline (1 ml/100 g bdw). The uterus containing embryos were dissected and transferred to a Petri dish, and then the embryos were collected on a new petri dish containing ice cold PBS. The brains of the embryos were then dissected under stereoscope and the cortices of the brains were placed in a Petri dish containing ice cold 10% FBS DMEM. The meninges of the cortices were removed carefully and then transferred to a 15 ml tube. Total 5 ml of digestion solution (1.25% Trypsin diluted with DMEM/F12 medium) were added into the tube containing meninges-free cortices and then incubated at 37° C. for 15 min. The digestion was stopped by adding 10% FBS DMEM/F12 supplemented with 10 μg/ml DNase (Sigma, DN25). […] The viable cells without staining with typan blue were then counted under microscope. […]

The test system of the next test is Beclin-1. In words: Beclin-1 expression and Beclin 1 siRNA depletion in N2a cells. The class given is cell-based, mouse. The protocol: FIG. 7: Western blot analysis of expression level of phosphorylated mTOR (p-mTOR) or its substrate P70S6K (p-P70S6K) in N2a cells with treatment of 25 μM Cory B or 0.2 μM rapamycin for 6 hours (FIG. 7A); western blot analysis of Beclin 1 expression in N2a cells with non-target or Beclin 1-specific siRNA treatments followed by Cory B (FIG. 7B)
To elucidate the molecular mechanism of Cory B action, the classic autophagy controlling pathway, the mTOR pathway is first examined. […] Several other pathways reported to be involved in the activation of autophagy, including AKT, AMPK, MEK/ERK, JNK, and ER stress pathways, and calcium signaling pathway (data not shown), are also tested.

The subject of test [2] is L3 Drosophila larvae fat body. In words: LysoTracker Red staining of Drosophila L3 larvae fat body. The class given is in vivo. The procedure: Drosophila culture and drug feeding. Flies were raised at 25° C. on standard corn meal medium supplemented with dry yeast. Cory B and rapamycin were initially dissolved in DMSO then diluted in water to desired concentrations. The drug containing water was added into instant Drosophila food and mixed thoroughly. As the control, the same amount of DMSO was also mixed with instant Drosophila food. For the treatment, L3 larvae or adult flies were transferred to the drug-containing medium and incubated for indicated time.
Lysotracker staining and quantitative analysis of autophagic structures. L3 larvae were dissected using fine forceps under a dissecting microscope and inverted so that fat bodies were exposed to the incubating solution. The larvae carcasses were stained with 100 nM of LysoTracker red in PBS for 5 minutes at room temperature. After the incubation, the larvae carcasses were rinsed once in PBS and transferred to a glass slide with a drop of mounting medium on it. […] Fat body lobes were then covered with a cover slide and immediately observed under a standard fluorescence microscope. Quantitative analysis of lysotracker-positive spots was performed according to previous described protocol with minor revision. […] The numbers of lysotracker-positive spots were quantified from at least 20 randomly selected fluorescent image fields (4700 μm^2/field). […]

The subject of a further test is JNPL P301 Tau mice. In words: JNPL P301 Tau mice treated intraperitoneally. The class given is in vivo. The conditions noted are these: 20 mg/kg/d intraperitoneally, three months. The protocol:
N2a Swedish APP cells are incubated with different concentration of Cory and Cory B in the presence or absence of CQ and 3MA. […] Tg2567 APP mice, 3 months old JNPL P301 Tau mice and WT mice intraperitoneally are administrated with 20 mg/kg/d CoryB.

`CCCN1C(=O)[C@]2(CCN3C[C@@H](CC)[C@@H](/C(=C\OC)C(=O)OC)C[C@H]32)c2ccccc21` [CB6]: the “autophagy (LC3 immunoblot)” value in test [1] is “induced autophagy”.

For `C=CCN1C(=O)[C@]2(CCN3C[C@@H](CC)[C@@H](/C(=C\OC)C(=O)OC)C[C@H]32)c2ccccc21` [CB8], the “autophagy (LC3 immunoblot)” value in test [1] is recorded as “induced autophagy”.

Turning to `CC[C@@H]1CN2CC[C@]3(C(=O)Nc4ccccc43)C2C[C@@H]1C(=COC)C(=O)OC` (stereo partly shown) [Cory B, Corynoxine B], the “expression of Beclin-1” value in the test on Beclin-1 is on record as “does not affect the expression of Beclin-1”. Moreover, the “Cory B-induced autophagy under Beclin-1 siRNA treatment” value in the test on Beclin-1 (Beclin 1-specific siRNA) is “completely blocks”. In test [2] (fed 0.2 mg/ml, 6 hours), the “LysoTracker Red-positive puncta in fat bodies” value was “induces formation of LysoTracker Red-positive puncta”. In test [2] (with autophagy inhibitor 3-MA), the “LysoTracker Red puncta formation in presence of 3-MA” value was “blocked”. The total tau entry with JNPL P301 Tau mice is recorded as “significantly decrease”.

Values taken from patent US9604987B2, “Synthesis of autophagy inducing compound and the uses thereof” (Hong Kong Baptist University, priority 2012, dated 2017).
